Data reported in patent US20100075343A1, “NOVEL PEPTIDES” (priority 2007, published 2010).

What was measured:
[1] = tested on: hypothalamic cells of the apoaequorin-expressing mice; experiment: Intracellular calcium ion increase (aequorin luminescence), hypothalamus; type: cell-based, mouse; details: for increase of intracellular calcium concentration in hypothalamic cells (RLU per second): 5 μmol/L peptide, added at 25 seconds; for luminescence (intracellular calcium ion increase) in hypothalamus: peptide at final concentrations of 1 μmol/L and 5 μmol/L
Experimental: (§1) A hypothalamus, pituitary gland, kidney, heart, blood vessel, or a portion of brain tissue is collected from transgenic mice systemically expressing apoaequorin (WO02/010371) produced by introducing an apoaequorin gene expression vector into fertilized eggs. The obtained hypothalamus, pituitary gland, kidney, heart, blood vessel, or brain tissue is cut finely into pieces, suspended in a medium containing coelenterazine, and then incubated to incorporate coelenterazine into the cells to form aequorin (a complex of apoaequorin and coelenterazine). Since aequorin luminesces upon binding to intracellular calcium ions, the relative luminescence level in cells before and after addition of a medium containing the peptide or a pharmaceutically acceptable salt thereof is measured in a luminometer every second over time and is used as an indicator of intracellular calcium ion concentration. Increase in the relative luminescence level due to addition of the peptide or pharmaceutically acceptable salt thereof confirms that the peptide or pharmaceutically acceptable salt thereof has the activity to increase intracellular calcium ion concentration.
(§2) Whether Peptides 1 to 8 synthesized in Example 2 have the activity of increasing intracellular calcium ion concentration was investigated using the organs of transgenic mice introduced with the apoaequorin gene and systemically expressing apoaequorin (hereinafter referred to as apoaequorin-expressing mice). In apoaequorin-expressing mouse cells, light is emitted when apoaequorin binds to a calcium ion in the presence of the luminescent substrate coelenterazine and thus the intracellular calcium ion concentration can be monitored. Patent Document (WO02/010371) discloses the method for producing apoaequorin-expressing mice, method for evaluating biologically active substances that use biological samples derived from the mice, and experimental results of evaluating biologically active peptides using the mouse organs as shown below. […] Therefore, apoaequorin-expressing mice can be used in the evaluation of the physiological activities of novel peptides.
(§3) Apoaequorin-expressing mice were produced according to the method disclosed in Reference Example 4 of Patent Document (WO02/010371). The apoaequorin-expressing mice were sacrificed, individual organs including thymus, hypothalamus, spleen, bone, aorta, heart, kidney, adrenal gland, pancreas, pituitary gland, uterus, medulla oblongata, and spinal cord were removed; and each of the organs was cut into small cubes of approximately 1 to 2 mm^3. Next, in 5-mL tubes (Rohren-Tubes; manufactured by Sarstedt, No. 55.476), three portions of each of the prepared organs were added to 50 μL of a 10 μmol/L solution of coelenterazine (manufactured by Molecular Probes) dissolved in RPMI 1640 medium, and these were cultured at 37° C. for three hours. After culturing, RPMI 1640 medium was added, and then Peptides 1 to 5 dissolved in RPMI 1640 medium were added 25 seconds after the addition of RPMI 1640 until each peptide had final concentrations of 1 μmol/L and of 5 μmol/L, and the relative luminescence levels were measured every second immediately after the addition of RPMI 1640 medium by using a luminometer (AutoLumat LB953, manufactured by Berthold).

[2] = tested on: pituitary cells of the apoaequorin-expressing mice; experiment: Intracellular calcium ion increase (aequorin luminescence), pituitary gland; type: cell-based, mouse; details: for increase of intracellular calcium concentration in pituitary cells (RLU per second): added at 25 seconds; for luminescence (intracellular calcium ion increase) in pituitary gland: peptide at final concentrations of 1 μmol/L and 5 μmol/L
Experimental: as §1, §2, §3

[3] = tested on: medulla oblongata of apoaequorin-expressing mice; experiment: Intracellular calcium ion increase (aequorin luminescence), medulla oblongata; type: cell-based, mouse; details: peptide at final concentrations of 1 μmol/L and 5 μmol/L
Experimental: as §1, §2, §3

[4] = tested on: cardiac cells of the apoaequorin-expressing mice; experiment: Intracellular calcium ion increase (aequorin luminescence), heart; type: cell-based, mouse; details: for increase of intracellular calcium concentration in cardiac cells (RLU per second): 5 μmol/L peptide, added at 25 seconds; for luminescence (intracellular calcium ion increase) in heart: peptide at final concentrations of 1 μmol/L and 5 μmol/L
Experimental: as §1, §2, §3

[5] = tested on: kidney cells of the apoaequorin-expressing mice; experiment: Intracellular calcium ion increase (aequorin luminescence), kidney; type: cell-based, mouse; details: for increase of intracellular calcium concentration in kidney cells (RLU per second): 1 μmol/L peptide, added at 25 seconds; for luminescence (intracellular calcium ion increase) in kidney: peptide at final concentrations of 1 μmol/L and 5 μmol/L
Experimental: as §1, §2, §3

[6] = tested on: spleen of apoaequorin-expressing mice; experiment: Intracellular calcium ion increase (aequorin luminescence), spleen; type: cell-based, mouse; details: peptide at final concentrations of 1 μmol/L and 5 μmol/L
Experimental: as §1, §2
(§4) Apoaequorin-expressing mice were produced according to the method disclosed in Reference Example 4 of Patent Document (WO02/010371). […] After culturing, RPMI 1640 medium was added, and then Peptides 1 to 5 dissolved in RPMI 1640 medium were added 25 seconds after the addition of RPMI 1640 until each peptide had final concentrations of 1 μmol/L and of 5 μmol/L, and the relative luminescence levels were measured every second immediately after the addition of RPMI 1640 medium by using a luminometer (AutoLumat LB953, manufactured by Berthold).

[7] = tested on: uterus of apoaequorin-expressing mice; experiment: Intracellular calcium ion increase (aequorin luminescence), uterus; type: cell-based, mouse; details: peptide at final concentrations of 1 μmol/L and 5 μmol/L
Experimental: (§5) A hypothalamus, pituitary gland, kidney, heart, blood vessel, or a portion of brain tissue is collected from transgenic mice systemically expressing apoaequorin (WO02/010371) produced by introducing an apoaequorin gene expression vector into fertilized eggs. The obtained hypothalamus, pituitary gland, kidney, heart, blood vessel, or brain tissue is cut finely into pieces, suspended in a medium containing coelenterazine, and then incubated to incorporate coelenterazine into the cells to form aequorin (a complex of apoaequorin and coelenterazine). Since aequorin luminesces upon binding to intracellular calcium ions, the relative luminescence level in cells before and after addition of a medium containing the peptide or a pharmaceutically acceptable salt thereof is measured in a luminometer every second over time and is used as an indicator of intracellular calcium ion concentration. Increase in the relative luminescence level due to addition of the peptide or pharmaceutically acceptable salt thereof confirms that the peptide or pharmaceutically acceptable salt thereof has the activity to increase intracellular calcium ion concentration. […]

[8] = tested on: spinal cord of apoaequorin-expressing mice; experiment: Intracellular calcium ion increase (aequorin luminescence), spinal cord; type: cell-based, mouse; details: peptide at final concentrations of 1 μmol/L and 5 μmol/L
Experimental: as §5

[9] = tested on: thymus of apoaequorin-expressing mice; experiment: Intracellular calcium ion increase (aequorin luminescence), thymus; type: cell-based, mouse; details: peptide at final concentrations of 1 μmol/L and 5 μmol/L
Experimental: as §1, §2, §4

[10] = tested on: aortic cells of the apoaequorin-expressing mice; experiment: Intracellular calcium ion increase (aequorin luminescence), aorta; type: cell-based, mouse
Experimental: as §1, §2, §4

[11] = tested on: antiserum against ESPGPERVW peptide of human VGF; type: binding; details: 1, 10, and 100 pmol of the peptides
Experimental: Namely, to 100 μL of antiserum diluted 9×10^5 folds with RIA buffer, 100 μL of RIA buffer containing a fixed amount of [^125I]-labeled Peptide 1 (approximately 20000 cpm, 500-550 Bq, approximately 9 fmol in terms of peptide amount) and 100 μL of RIA buffer solutions each containing a sequentially diluted VGF-derived peptide were added, this was incubated at 4° C. for 40 hours, and the labeled Peptide 1 and VGF-derived peptide were competitively bound to the antibody in the antiserum. As controls, reactions that use RIA buffer instead of the antiserum to measure non-specific binding, and reactions that use RIA buffer instead of VGF-derived peptide solutions to measure the maximum binding level were carried out. Reactions for non-specific binding were performed in quadruplicates, and the other reactions were performed in duplicates, and for each of the reactants, the immune complex was precipitated as in the above-mentioned antibody titer measurements, and its radioactivity (cpm) was measured. The average radioactivity of non-specific binding reaction is defined as non-specific binding level N, the radioactivity value for each VGF-derived peptide addition reaction is defined as Y, and the radioactivity value of maximum binding reaction is defined as Z. The percentage ratio (B/B0) of antiserum specific binding level (B) with peptide addition to the maximum binding level (B0), was determined using the following formula.
B/B0(%)={(Y−N)/(Z−N)}×100
Accordingly, the amount of peptide that achieves 50% B/B0, more specifically, the amount of peptide that yields 50% inhibition of the maximum binding level, was used as an indicator of the peptide binding activity to the antiserum.

[12] = tested on: uterus of apoaequorin-expressing mice; details: final concentration of 1 μmol/L; reported in WO02/010371; cited from earlier work
[13] = tested on: blood vessels of apoaequorin-expressing mice; details: final concentration of 1 μmol/L; reported in WO02/010371; cited from earlier work
[14] = tested on: adrenal glands of apoaequorin-expressing mice; details: final concentration of 1 μmol/L; reported in WO02/010371; cited from earlier work
[15] = tested on: rats fed with high-calorie diets; details: administered into the rat ventricle, Non-patent Document 6; cited from earlier work
male rats = details: direct administration to the PVN of male rats; Non-patent Document 7; cited from earlier work

Row | Substance | increase of intracellular calcium concentration in hypothalamic cells (RLU per second) [1] | luminescence (intracellular calcium ion increase) in hypothalamus [1] | increase of intracellular calcium concentration in pituitary cells (RLU per second) ([2]; 5 μmol/L peptide) | luminescence (intracellular calcium ion increase) in pituitary gland [2] | luminescence (intracellular calcium ion increase) in medulla oblongata [3] | increase of intracellular calcium concentration in cardiac cells (RLU per second) [4] | luminescence (intracellular calcium ion increase) in heart [4] | increase of intracellular calcium concentration in kidney cells (RLU per second) [5] | luminescence (intracellular calcium ion increase) in kidney [5] | luminescence (intracellular calcium ion increase) in spleen [6] | luminescence (intracellular calcium ion increase) in uterus [7] | luminescence (intracellular calcium ion increase) in spinal cord [8] | luminescence (intracellular calcium ion increase) in thymus [9] | also measured
1 | Peptide 5: amino acid sequence at position 211 to 236 in rat VGF (ASWGEFQARVPERAPLPPSVPSQFQA; synthetic Peptide 5, VGF-related peptide, rat VGF positions 211-236) | increase of intracellular calcium concentration | luminescence was observed | increase of intracellular calcium concentration | luminescence was observed | luminescence was observed | increase of intracellular calcium concentration | luminescence was observed | increase of intracellular calcium concentration | luminescence was observed | luminescence was observed | luminescence was observed | luminescence was observed | – | –
2 | Peptide 6: amino acid sequence at position 353 to 372 in rat VGF (GLQETQQERENEREEEAEQE; synthetic Peptide 6, VGF-related peptide, rat VGF positions 353-372) | increase of intracellular calcium concentration | luminescence was observed | increase of intracellular calcium concentration | luminescence was observed | luminescence was observed | – | luminescence was observed | increase of intracellular calcium concentration | luminescence was observed | luminescence was observed | luminescence was observed | – | luminescence was observed | increase of intracellular calcium concentration in aortic cells (RLU per second) ([10]; 1 μmol/L peptide, added at 25 seconds): increase of intracellular calcium concentration; luminescence (intracellular calcium ion increase) in aorta ([10]; peptide at final concentrations of 1 μmol/L and 5 μmol/L): luminescence was observed
3 | Peptide 8: amino acid sequence at position 423 to 430 in rat VGF (SQEEAPGH; synthetic Peptide 8, VGF-related peptide, rat VGF positions 423-430) | – | – | – | luminescence was observed | luminescence was observed | increase of intracellular calcium concentration | luminescence was observed | – | – | luminescence was observed | – | luminescence was observed | luminescence was observed | increase of intracellular calcium concentration in pituitary cells (RLU per second) ([2]; 1 μmol/L peptide): increase of intracellular calcium concentration
4 | angiotensin II (DRVYIHPF) [non-VGF peptide] | – | – | – | – | – | – | – | – | – | – | – | – | – | inhibition of binding of the antiserum to labeled peptide [11]: none of these peptides showed inhibition; luminescence in uterus [12]: strong luminescence was observed; luminescence in blood vessels [13]: strong luminescence was observed; luminescence in adrenal glands [14]: strong luminescence was observed
5 | rat VGF (556-576): known peptide, positions 556-576 of the rat VGF amino acid sequence | – | – | – | – | – | – | – | – | – | – | – | – | – | suppression of weight gain [15]: activity of suppressing weight gain; erection inducing activity (male rats): this activity was not observed
